Activity calls are given as the source filed them. The rule behind the calls is not given here.
Columns and labels:
Pfeiffer [1] = experiment: Cytotoxicity against human Pfeiffer cells assessed as reduction in protein binding adjusted cell viability incubated for 4 days by [3H]-thymidine incorporation based liquid scintillation counter method; format: functional
SU-DHL-6 = experiment: Cytotoxicity against human SUDHL6 cells assessed as reduction in cell viability incubated for 4 days by celltiter glo luminescent assay; format: functional, cell-based; conditions: SU-DHL-6, 96 h
[2] = biological target: T1, Phosphatidylinositol 4,5-bisphosphate 3-kinase catalytic subunit delta isoform (Homo sapiens, UniProt O00329)
T1 sequence (O00329 whole entry): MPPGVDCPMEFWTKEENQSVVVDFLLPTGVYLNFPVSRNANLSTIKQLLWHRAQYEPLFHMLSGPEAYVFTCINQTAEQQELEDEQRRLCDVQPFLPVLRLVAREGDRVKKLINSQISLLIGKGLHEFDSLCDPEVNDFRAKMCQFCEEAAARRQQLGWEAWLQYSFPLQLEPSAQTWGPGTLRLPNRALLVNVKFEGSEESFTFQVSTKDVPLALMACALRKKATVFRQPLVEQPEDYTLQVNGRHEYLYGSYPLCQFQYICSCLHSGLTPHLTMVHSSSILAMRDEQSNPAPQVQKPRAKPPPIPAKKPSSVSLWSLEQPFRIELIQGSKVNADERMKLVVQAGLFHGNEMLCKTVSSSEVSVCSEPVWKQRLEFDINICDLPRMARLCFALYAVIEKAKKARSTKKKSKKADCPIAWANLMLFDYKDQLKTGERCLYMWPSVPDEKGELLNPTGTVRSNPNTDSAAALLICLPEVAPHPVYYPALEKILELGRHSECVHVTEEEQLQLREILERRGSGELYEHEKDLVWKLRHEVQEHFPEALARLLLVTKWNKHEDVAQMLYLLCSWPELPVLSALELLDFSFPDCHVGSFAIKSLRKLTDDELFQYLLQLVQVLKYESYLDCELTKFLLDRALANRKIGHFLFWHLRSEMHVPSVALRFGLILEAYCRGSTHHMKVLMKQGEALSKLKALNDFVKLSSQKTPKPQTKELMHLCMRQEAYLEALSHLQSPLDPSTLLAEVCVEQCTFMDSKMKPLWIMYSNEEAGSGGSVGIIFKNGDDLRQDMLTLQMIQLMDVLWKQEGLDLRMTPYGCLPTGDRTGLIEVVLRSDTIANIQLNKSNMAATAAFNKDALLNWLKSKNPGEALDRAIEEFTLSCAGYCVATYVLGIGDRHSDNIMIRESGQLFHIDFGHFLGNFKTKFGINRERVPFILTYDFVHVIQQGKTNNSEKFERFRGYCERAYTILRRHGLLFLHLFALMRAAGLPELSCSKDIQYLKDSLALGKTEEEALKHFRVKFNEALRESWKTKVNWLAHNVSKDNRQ
Description: (§1) Inhibition of PI3Kdelta (unknown origin) using D-myophosphatidylinositol 4,5-bisphosphate as substrate incubated for 120 mins by [gamma-33P]ATP based SPA assay

[3] = Permeability across apical to basolateral side in human Caco2 cells at 50 uM incubated for 120 mins by LC/MS analysis; format: ADME, cell-based; conditions: Caco-2, read-out: permeability
[4] = AUC in rat at 4 mg/kg, po measured for 24 hrs by LC/MS/MS analysis; format: ADME, organism-based; conditions: in vivo
[5] = biological target: Voltage-gated inwardly rectifying potassium channel KCNH2 (Homo sapiens, UniProt Q12809); experiment: Inhibition of human ERG channel at 30 uM incubated for 24 hrs in presence of [3H] Dofetilide by filter binding assay based scintillation counting analysis
Pfeiffer [6] = experiment: Cytotoxicity against human Pfeiffer cells assessed as reduction in cell viability incubated for 4 days by [3H]-thymidine incorporation based liquid scintillation counter method; format: functional
[7] = Fractional unbound in human plasma; format: ADME, cell-free
HEK293 = experiment: Cytotoxicity against human HEK293 cells assessed as reduction in cell viability at 20 uM incubated for 72 hrs by celltiter glo luminescent assay; format: cell-based; conditions: hek293, 72 h
[8] = AUC in cynomolgus monkey at 1 mg/kg, po measured for 24 hrs by LC/MS/MS analysis; format: ADME, organism-based, Macaca fascicularis; conditions: in vivo
[9] = Toxicity in dog assessed as testicular lesions observed on day 28; parameters: species or system Canis lupus familiaris; conditions: in vivo
[10] = AUC in rat at 5 mg/kg, po measured for 24 hrs by LC/MS/MS analysis; format: ADME, organism-based; conditions: in vivo
[11] = Intrinsic clearance in human liver microsomes at 1 uM measured upto 30 mins by LC/MS analysis; format: ADME, Microsome; conditions: read-out: CLH (converted)
[12] = biological target: T2, Phosphatidylinositol 4,5-bisphosphate 3-kinase catalytic subunit delta isoform (Homo sapiens) (UniProt O00329)
T2 sequence (whole entry): T1 sequence (O00329 whole entry)
Description: as §1

[13] = AUC in cynomolgus monkey at 2 mg/kg, po measured for 24 hrs by LC/MS/MS analysis; format: ADME, organism-based, Macaca fascicularis; conditions: in vivo
[14] = Half life in cynomolgus monkey at 2 mg/kg, po measured for 24 hrs by LC/MS/MS analysis; format: ADME, organism-based, Macaca fascicularis; conditions: in vivo
[15] = Toxicity in Beagle dog; parameters: species or system Canis lupus familiaris; conditions: in vivo
[16] = AUC in cynomolgus monkey at 10 mg/kg, po measured for 24 hrs by LC/MS/MS analysis; format: ADME, organism-based, Macaca fascicularis; conditions: in vivo
[17] = Half life in cynomolgus monkey at 10 mg/kg, po measured for 24 hrs by LC/MS/MS analysis; format: ADME, organism-based, Macaca fascicularis; conditions: in vivo

Chain of Voltage-gated inwardly rectifying potassium channel KCNH2 (Q12809 whole entry): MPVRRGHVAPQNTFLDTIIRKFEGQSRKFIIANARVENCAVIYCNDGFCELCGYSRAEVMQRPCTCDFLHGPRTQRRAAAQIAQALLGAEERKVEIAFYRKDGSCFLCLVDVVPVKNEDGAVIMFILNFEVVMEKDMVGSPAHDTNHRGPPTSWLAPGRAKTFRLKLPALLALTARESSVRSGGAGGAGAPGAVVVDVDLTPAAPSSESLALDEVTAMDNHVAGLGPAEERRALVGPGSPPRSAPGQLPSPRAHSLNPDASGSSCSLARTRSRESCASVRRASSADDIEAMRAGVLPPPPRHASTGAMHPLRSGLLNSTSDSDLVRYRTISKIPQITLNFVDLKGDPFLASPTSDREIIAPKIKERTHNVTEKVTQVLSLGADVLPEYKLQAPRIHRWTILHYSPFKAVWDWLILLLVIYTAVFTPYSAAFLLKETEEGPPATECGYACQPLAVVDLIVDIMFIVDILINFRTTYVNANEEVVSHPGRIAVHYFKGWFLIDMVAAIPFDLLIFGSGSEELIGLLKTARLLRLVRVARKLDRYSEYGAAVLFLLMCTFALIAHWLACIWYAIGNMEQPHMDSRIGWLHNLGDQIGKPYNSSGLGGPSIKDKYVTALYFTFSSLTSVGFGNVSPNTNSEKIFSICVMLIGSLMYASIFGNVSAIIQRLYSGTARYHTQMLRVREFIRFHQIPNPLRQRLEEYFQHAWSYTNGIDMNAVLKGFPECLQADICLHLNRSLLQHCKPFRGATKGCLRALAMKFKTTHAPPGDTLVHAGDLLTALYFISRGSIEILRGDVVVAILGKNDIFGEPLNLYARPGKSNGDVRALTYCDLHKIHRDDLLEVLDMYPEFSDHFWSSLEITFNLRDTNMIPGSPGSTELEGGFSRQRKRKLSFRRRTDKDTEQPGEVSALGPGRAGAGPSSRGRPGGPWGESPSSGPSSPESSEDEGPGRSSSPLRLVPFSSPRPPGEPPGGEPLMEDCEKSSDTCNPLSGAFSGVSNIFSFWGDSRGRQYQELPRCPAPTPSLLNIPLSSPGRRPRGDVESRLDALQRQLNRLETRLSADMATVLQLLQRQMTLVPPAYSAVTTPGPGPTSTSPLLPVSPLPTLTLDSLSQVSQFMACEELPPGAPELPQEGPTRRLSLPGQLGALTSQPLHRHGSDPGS

Compound | IC50 [2] | fraction unbound [7] | IC50 (Pfeiffer [1]) | IC50 (SU-DHL-6) | IC50 (Pfeiffer [6]) | other results
COc1c([C@H](C)Nc2ncnc3[nH]cnc23)cc(Cl)c(C)c1-c1cnn(C)c1 | 2.8 nM | 0.029 | 950 nM | 100 nM | 120 nM | –
COc1c([C@H](C)n2nc(C)c3c(N)ncnc32)cc(Cl)c(C#N)c1C1CN(C[C@H](C)O)C1 | 1.9 nM | 0.42 | 3.6 nM | 2.4 nM | 1.5 nM | AUC at 24 h [8]: 4.1 µM·h; Activity [9]: Toxic; AUC at 24 h [10]: 6.8 µM·h; inhibition (INH) [5]: Active
Cc1csc2nc([C@H](C)Nc3ncnc4[nH]cnc34)c(-c3cccc(F)c3)c(=O)n12 [DEZAPELISIB] | – | 0.17 | 66 nM | 18 nM | 14 nM | AUC at 24 h [16]: 4.9 µM·h; half-life [17]: 78 min; AUC at 24 h [10]: 4.4 µM·h
COc1c(C(C)n2nc(C)c3c(N)ncnc32)cc(Cl)c(C)c1C1CCN(C)CC1 (racemic) | 11 nM | 0.19 | 53 nM | 44 nM | 11 nM | –
COc1c([C@H](C)n2nc(C)c3c(N)ncnc32)cc(Cl)c(C)c1C1CNC(=O)C1 (stereo partly drawn) | 2.4 nM | 0.1 | 480 nM | 13 nM | 51 nM | Papp A→B at 2 h, 50 µM [3]: 2.8 ×10⁻⁶ cm/s; CLint scaled at 1 µM [11]: 11.7 mL/min/kg; inhibition (INH) [5]: Not Active; inhibition [12]: inactive
C[C@H](Nc1ncnc2[nH]cnc12)c1cc(Cl)c2cccnc2c1-c1cccc(F)c1 | 8.4 nM | 0.014 | 1000 nM | 140 nM | 50 nM | –
COc1c([C@H](C)n2nc(C)c3c(N)ncnc32)cc(Cl)c(C)c1-c1ccnc(C(=O)N(C)C)c1 | 0.93 nM | 0.089 | 61 nM | 7.4 nM | 8.6 nM | –
CC(Nc1ncnc2[nH]cnc12)c1ccc2cccnc2c1-c1cccc(F)c1 (racemic) | 430 nM | 0.1 | 3200 nM | 1800 nM | 490 nM | –

Further lines, with some results ahead:

IC50 [2] | fraction unbound [7] | Compound | IC50 (Pfeiffer [1]) | IC50 (SU-DHL-6) | IC50 (Pfeiffer [6]) | other results
0.99 nM | 0.14 | COc1c([C@H](C)Nc2ncnc(N)c2C#N)cc(Cl)c(C)c1-c1cncc(S(C)(=O)=O)c1 | 17 nM | 3.1 nM | 3.4 nM | Papp A→B at 2 h, 50 µM [3]: 7.9 ×10⁻⁶ cm/s; AUC at 24 h [4]: 10 µM·h; inhibition (INH) [5]: Active; Activity (HEK293): Toxic
120 nM | 0.092 | COc1c(C(C)n2ncc3c(N)ncnc32)cc(Cl)c(C)c1-c1ccnc(C(=O)N(C)C)c1 (racemic) | 4500 nM | 840 nM | 610 nM | –
< 1 nM | 0.23 | CCOc1c([C@H](C)n2nc(C)c3c(N)ncnc32)cc(Cl)c(C#N)c1C1CNC(=O)C1 (stereo partly drawn) | 4.1 nM | 0.47 nM | 1.7 nM | Papp A→B at 2 h, 50 µM [3]: 0.3 ×10⁻⁶ cm/s; CLint scaled at 1 µM [11]: 11.7 mL/min/kg; inhibition [12]: inactive
1.8 nM | 0.22 | COc1c([C@H](C)Nc2ncnc(N)c2C#N)cc(Cl)c(C)c1-c1ccc(C(=O)N(C)C)cn1 | 61 nM | 21 nM | 17 nM | AUC at 24 h [13]: 0.2 µM·h; half-life [14]: 12 min; AUC at 24 h [4]: 7.7 µM·h; inhibition (INH) [5]: Not Active; Activity (HEK293): Non-Toxic
– | 0.0064 | Cc1c(Cl)cc(C(C)Nc2ncnc3[nH]cnc23)c(-c2cccc(F)c2)c1C#N (racemic) | – | 1300 nM | 660 nM | –
– | 0.059 | C[C@H](Nc1ncnc2[nH]cnc12)c1cc(Cl)c2ccnnc2c1-c1cccc(F)c1 | 270 nM | 73 nM | 26 nM | AUC at 24 h [10]: 13 µM·h; Activity [15]: Toxic
1.7 nM | 0.12 | COc1c([C@H](C)Nc2ncnc3[nH]cnc23)cc(Cl)c(C)c1-c1cncc(S(C)(=O)=O)c1 | 40 nM | 14 nM | 9.5 nM | Papp A→B at 2 h, 50 µM [3]: 0.5 ×10⁻⁶ cm/s; AUC at 24 h [10]: 3 µM·h
1.4 nM | 0.065 | CCOc1c([C@H](C)n2nc(C)c3c(N)ncnc32)cc(Cl)c(C)c1C1CNC(=O)C1 (stereo partly drawn) | 47 nM | 2.1 nM | 4.8 nM | Papp A→B at 2 h, 50 µM [3]: 1.9 ×10⁻⁶ cm/s; CLint scaled at 1 µM [11]: 11.7 mL/min/kg; inhibition [12]: inactive
5.3 nM | – | Cc1c(Cl)cc(C(C)Nc2ncnc3[nH]cnc23)c(-c2cccc(F)c2)c1-c1cnn(C)c1 (racemic) | – | 60 nM | 8.7 nM | –
– | 0.013 | COc1c([C@H](C)Nc2ncnc3[nH]cnc23)cc(Cl)c(C)c1-c1ccc(S(C)(=O)=O)cc1 | 3100 nM | 170 nM | 130 nM | –
